Earlier results on 1 compound are cited in patent US20030133872A1, “Radiopharmaceutical agent for the treatment of early stage cancer” (priority 2001, published 2003).

The conditions of the data set: Woolfenden et al., Int. J. Nucl. Med. 10 (4), 251-256 (1983).

On to `[153Sm+3].[Cl-].[Cl-].[Cl-]` [^153Sm-chloride], for which the liver uptake result is listed as “high liver uptake”.
